Results published in patent publication US20120252820A1, “METHODS OF TREATING FUNGAL INFECTIONS” (NORTHEASTERN UNIVERSITY, priority 2008, published 2012).
Converted amounts (≈) assume the structure as drawn.

Assays:
[1] = test system: C. albicans 3153A biofilms; experiment: Biofilm killing by antifungals, CFU determination; assay type: cell-based, Candida albicans; conditions: for killing curve of biofilm: dose-dependent, 24 hrs challenge
Method: (§1) Biofilms of C. albicans 3153A cells were cultured in wells of microtiter plates in RPMI medium for 48 hrs (Ramage et al., Antimicrob. Agents Chemother. 45:2475-2479 (2001)), washed twice in PBS, pH 7.4, to remove nonadherent cells, and resuspended in 100 μl RPMI growth medium containing antifungals. After 24 hrs of antifungal challenge, the biofilms and cultures were washed twice, resuspended in 100 μl PBS, scraped, transferred into eppendorf tubes, vortexed and plated for colony forming unit (CFU) determination on YPD medium. […] This could lead to an underestimation of surviving cells by a factor of ≦10. In parallel, exponentially growing and stationary planktonic cultures were grown for 48 hrs in RPMI medium, and then antifungals were added for 24 hrs. The experiment was performed in triplicate and error bars indicate standard deviation (see FIGS. 1A-1B).
Biofilms were grown in microtiter plates and were treated with amphotericin B or chlorhexidine (100 μg/ml) for 24 hrs, after which they were washed and vortexed, as discussed above. The cells were then reinoculated into microtiter plates to form new biofilms. The new biofilms, derived from persisters that survived drug treatment, were again treated with the antifungal agents (as discussed above), and the procedure was repeated a total of 3 times. Biofilms were sampled for CFU determination before and after antifungal treatment. The experiment was performed in triplicate.
Tests were also performed to determine if yeast persisters were multidrug tolerant. Mature, 48 hr biofilms of C. albicans were challenged for 24 hrs with 100 μg/ml amphotericin B, 100 μg/ml chlorhexidine, or a combination of these two antifungal agents, using the same procedures discussed above. Biofilms were washed and sampled for CFU determination before and after antifungal treatment, as discussed above.

[2] = test system: Biofilm-Deficient Strains of C. albicans; experiment: Persister formation by biofilm-deficient strains (survival to high levels of amphotericin B); assay type: cell-based, Candida albicans
Method: as §1
Given that persisters appeared only in the biofilm, their formation was dependent on the same genes/pathways that determine biofilm development. A large panel of biofilm-defective mutants was therefore tested for their ability to produce persisters by measuring survival to high levels of amphotericin B. These mutants were able to adhere to the surface of a microtiter plate, making it possible to assay in the biofilm survival protocol described above. All strains appeared to produce essentially normal levels of persisters (Table 1).

[3] = test system: C. albicans 3153A planktonic cultures; experiment: Killing of exponentially growing and stationary planktonic cultures, CFU determination; assay type: cell-based, Candida albicans; conditions: planktonic cultures in RPMI, antifungal 24 hrs
Method: as §1

C. albicans = experiment: MIC; assay type: cell-based; conditions: Candida albicans

CC[C@H](C)C[C@H](C)CCCCCCCCC(=O)N[C@H]1C[C@@H](O)[C@@H](NCCN)NC(=O)[C@@H]2[C@@H](O)CCN2C(=O)[C@H]([C@H](O)CCN)NC(=O)[C@H]([C@H](O)[C@@H](O)c2ccc(O)cc2)NC(=O)[C@@H]2C[C@@H](O)CN2C(=O)[C@H]([C@@H](C)O)NC1=O [Caspofungin, caspofungin]
killing of biofilms ([1]; C. albicans 3153A biofilms, 24 hrs antifungal challenge, CFU): ≤ 10 fold

C[C@@H]1[C@H](O)[C@@H](C)/C=C/C=C/C=C/C=C/C=C/C=C/C=C/[C@H](O[C@@H]2O[C@H](C)[C@@H](O)[C@H](N)[C@@H]2O)C[C@@H]2O[C@](O)(C[C@@H](O)C[C@@H](O)[C@H](O)CC[C@@H](O)C[C@@H](O)CC(=O)O[C@H]1C)C[C@H](O)[C@H]2C(=O)O [amphotericin B]
Persisters ([2]; strain 3153A, control wild type): +++^1 (+++ indicates 1-2% survival) | Persisters ([2]; strain CAI4): +^3 (+ indicates 0.05-0.1% survival) | Persisters ([2]; strain CJN698 (bcr1 with BCR1)): ++ (++ indicates 0.1-1% survival) | Persisters ([2]; strain CJN702 (bcr1)): ++ (++ indicates 0.1-1% survival) | Persisters ([2]; strain CKY136 (efg1)): +++ (+++ indicates 1-2% survival) | Persisters ([2]; strain CKY138 (efg1 cph1Δ)): ++ (++ indicates 0.1-1% survival) | Persisters ([2]; strain CKY357 (mkc1Δ)): ++^2 (++ indicates 0.1-1% survival) | Persisters ([2]; strain DAY185): ++ (++ indicates 0.1-1% survival) | Persisters ([2]; strain DAY286): ++ (++ indicates 0.1-1% survival) | Persisters ([2]; strain GKO9 (mds3)): ++ (++ indicates 0.1-1% survival) | Persisters ([2]; strain GKO443 (suv3)): ++ (++ indicates 0.1-1% survival) | Persisters ([2]; strain GKO798 (kem1)): ++ (++ indicates 0.1-1% survival) | Persisters ([2]; strain GKO814 (nup85)): ++ (++ indicates 0.1-1% survival) | Persisters ([2]; strain MC191 (flo8/flo8)): +++ (+++ indicates 1-2% survival) | Persisters ([2]; strain MC195 (flo8 with FLO8-2)): + (+ indicates 0.05-0.1% survival) | Persisters ([2]; strain MC245 (flo8/FLO8)): ++ (++ indicates 0.1-1% survival) | cells invulnerable (persisters) in biofilm ([1]; biofilm, higher concentrations of the drug, 24 hrs): More than 1% | killing curve of biofilm ([1]; CFU): biphasic killing | killing of exponentially growing and stationary cells [3]: effectively killed

[H]/N=C(\N/C(=N/[H])NCCCCCCNC(=N)NC(=N)Nc1ccc(Cl)cc1)Nc1ccc(Cl)cc1 [chlorhexidine]
concentration above which killing of persisters was observed ([1]; biofilm, 24 hrs): above 100 μg/ml | concentration at which the biofilm was completely sterilized ([1]; biofilm, 24 hrs): 1000 µg/mL | killing curve of biofilm ([1]; CFU): biphasic killing | killing of exponentially growing and stationary cells [3]: eliminated | MIC (C. albicans): 4 µg/mL (≈ 7.91 µM)
